Common to all, as to assay: inhibition of tumour cell growth, NCI panel, 48 h
Assay [1] has as its system DU-145 prostate.
Assay [2] relates to HS 578T breast.
Assay [3] relates to IGROV1 ovarian.
The test system of assay [4] is K-562 leukemia.
Assay [5] has as its system MDA-MB-231 breast.
Assay [6] has as its system MDA-MB-435.
Assay [7] deals with NCI-H460 lung.
In assay [8] the test system is NCI-H522 lung.
Assay [9] relates to OVCAR-3 ovarian.
In assay [10] the test system is PC-3 prostate.
Assay [11] concerns RXF 393 renal.
Assay [12] relates to SF-268 CNS.
In assay [13] the test system is SF-295 CNS.
Assay [14] relates to SK-MEL-5 melanoma.
The subject of assay [15] is SN12C renal.
The subject of assay [16] is SR leukemia.
Assay [17] deals with SW-620 colon.
For assay [18], the system named is CCRF-CEM leukemia.
Assay [19] has as its system UACC-62 melanoma.

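Grown in 96-well plates, cells were treated for 48 hours with each compound at five concentrations. Insufficient inhibition: endpoint recorded as highest concentration tested. TGI marks complete inhibition of growth.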 Some results are limits rather than exact numbers.

In the case of `CCCCCCCCCCCCCCCCNC(=O)/C(=C\c1ccc(Cl)c(Cl)c1)NC(=O)c1ccccc1`, the TGI is 70.7 µM in [1]; over 100 µM in [2]; 41.4 µM in assay [3]; 64.3 µM in [4]; 40.3 µM in assay [5]; over 100 µM in assay [6]. Further, the TGI in [7] was over 100 µM; in [8] it was over 100 µM; in [9], over 100 µM; in assay [10], 74.6 µM; in [11], 31.8 µM; in assay [12] it was over 100 µM. Moreover, the TGI is over 100 µM in [13]; over 100 µM in [14]; 81.5 µM in [15]; 90.7 µM in assay [16]; over 100 µM in [17].

`Cc1nn(C(=O)c2ccncc2)c2c1C(c1ccccc1[N+](=O)[O-])SC(N)=N2` (stereo not drawn): the TGI in [18], in assay [1], in assay [2], in assay [3], in assay [4] and in assay [5] was over 10 µM in each case. Moreover, the TGI in assay [6], in [7], in assay [9], in assay [10], in [11] and in assay [12] was over 10 µM in each case. Further, the TGI in assay [13], in assay [14], in assay [15], in [16], in [17] and in assay [19] was over 10 µM throughout.

For the compound `CCSC1=N/C(=C\c2ccco2)C(=O)N1`, the TGI in assay [18], in [1], in assay [2], in assay [3], in assay [4] and in [5] was over 100 µM each time. Moreover, the TGI in [6], in assay [8], in assay [9], in [10], in [12] and in [13] was over 100 µM each time. Moreover, the TGI in assay [14], in assay [15], in assay [16], in [17] and in assay [19] was over 100 µM each time.

For `CC(=O)N1C(Nc2nccs2)CCN1c1ccccc1` (stereo not drawn), the TGI in assay [18], in assay [1], in assay [2], in assay [3], in assay [4] and in assay [5] was over 10 µM throughout. For the same compound, the TGI in assay [6], in assay [7], in [9], in [10], in assay [11] and in [12] was over 10 µM each time. Also, the TGI in [13], in [14], in [15], in [16] and in assay [17] was over 10 µM each time.

With `O=C1Oc2ccccc2C(=O)/C1=C/N1C(=O)CNC1=S`, the TGI in assay [18], in assay [1], in assay [2], in [3], in assay [4] and in [5] was over 100 µM each time. In addition, the TGI in assay [6], in assay [7], in assay [8], in assay [9], in assay [10] and in assay [11] was over 100 µM in each case. Also, the TGI in assay [12], in assay [13], in [14], in assay [15], in [17] and in assay [19] was over 100 µM in each case.

For `CCCCCCCCCCCCOCC1(COCCCCCCCCCCCC)COC(c2ccc(N)cc2)OC1`, the TGI in assay [1], in assay [2], in assay [3], in [4], in [5] and in assay [6] was over 100 µM in each case. In addition, the TGI in assay [9], in assay [10], in [12], in assay [13], in assay [14] and in assay [15] was over 100 µM each time. For the same compound, the TGI in assay [16], in assay [17] and in [19] was over 100 µM each time.

On to `O=C(Nc1ccccc1)OCCN=C1c2ccccc2CCc2ccccc21`, for which the TGI in [18] worked out at 55.7 µM; in [1], 91.3 µM; in assay [2] it was 51.5 µM; in assay [3], 58.2 µM; in assay [4], 60.9 µM; in assay [5], 37.1 µM. Further, the TGI in assay [6] came to 43.6 µM; in assay [7], 44.4 µM; in assay [9], 44.3 µM; in [10] it was 82.8 µM; in assay [11] it was 50.2 µM; in [12], 75.4 µM. The TGI in assay [13] was 34.1 µM; in assay [14] it was 27.3 µM; in assay [15] it was 40.2 µM; in assay [16], 38.9 µM; in assay [17] it was over 100 µM; in assay [19], 26.7 µM.

On to `O=C(Cn1c2ccc(Br)cc2c2nc3ccccc3nc21)Nc1ccccc1`, for which the TGI in assay [18] is over 100 µM; in assay [1], over 100 µM; in assay [2], 76.9 µM; in assay [3], 56.2 µM; in assay [4] it was over 100 µM; in assay [5] it was 34.2 µM. The TGI is over 100 µM in assay [6]; over 100 µM in assay [7]; 40.5 µM in assay [8]; over 100 µM in assay [9]; 46.5 µM in assay [10]; 68.7 µM in assay [11]. In addition, the TGI was over 100 µM in assay [12]; over 100 µM in [13]; over 100 µM in assay [14]; over 100 µM in [15]; 66.8 µM in assay [17]; over 100 µM in assay [19].

Source of the values: PubChem BioAssay (NCI).
